Measured values from PubChem BioAssay (NCI).
Values joined by “and” are separate entries in the source; they are usually repeats but may differ in a detail not shown here. Equal values may be shown once.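 Where inhibition never reached the appropriate level, the endpoint shown equals the highest concentration tested. Otherwise, values were interpolated linearly from a five-concentration, 48-hour dose response in 96-well plates. GI50 marks 50% less growth. TGI marks complete inhibition of growth.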

Tests used:
Test in all cases: NCI-60 cell line screen, 48 h
OVCAR-4 ovarian = tested on: OVCAR-4 ovarian
COLO 205 colon = tested on: COLO 205 colon
OVCAR-3 ovarian = tested on: OVCAR-3 ovarian
SF-539 CNS = tested on: SF-539 CNS
NCI-H460 lung = tested on: NCI-H460 lung
ACHN renal = tested on: ACHN renal
NCI-H23 lung = tested on: NCI-H23 lung
U251 CNS = tested on: U251 CNS
HOP-92 NSCLC = tested on: HOP-92 NSCLC
LOX IMVI melanoma = tested on: LOX IMVI melanoma

| Structure (SMILES) | GI50 (OVCAR-4 ovarian) | TGI (OVCAR-4 ovarian) | GI50 (COLO 205 colon) | TGI (COLO 205 colon) | GI50 (OVCAR-3 ovarian) | TGI (OVCAR-3 ovarian) | GI50 (SF-539 CNS) | TGI (SF-539 CNS) | GI50 (NCI-H460 lung) | TGI (NCI-H460 lung) | GI50 (ACHN renal) | TGI (ACHN renal) | GI50 (NCI-H23 lung) | TGI (NCI-H23 lung) | GI50 (U251 CNS) | TGI (U251 CNS) | GI50 (HOP-92 NSCLC) | TGI (HOP-92 NSCLC) | GI50 (LOX IMVI melanoma) | TGI (LOX IMVI melanoma) |
| --- | --- | --- | --- | --- | --- | --- | --- | --- | --- | --- | --- | --- | --- | --- | --- | --- | --- | --- | --- | --- |
| COc1ccc(CNC(=O)c2c(C)n([O-])c3cc(F)c(F)cc3[n+]2=O)cc1 | 13.7 µM | 26.9 µM | 11.2 µM | 24.3 µM | 10 µM | 21.6 µM | 16.5 µM | 30.6 µM | 13.1 µM | 25.9 µM | 16.9 µM | 30.6 µM | 2.38 µM | 10.6 µM | 12.8 µM | 25.5 µM | 14.9 µM | 32 µM | 5.22 µM | 17.5 µM |
| COc1cc2c3c(n(CCCN4CCN(CCO)CC4)c(=O)c2cc1OC)-c1cc2c(cc1C3=O)OCO2 | 15.9 µM | > 50.7 µM | 15.1 µM | > 57.2 µM | 13.2 µM | 28.3 µM | 1.46 µM | 6.3 µM | 0.972 µM | 18.4 µM | 8.54 µM | > 44.4 µM | 4.77 µM | 16.5 µM | > 33.7 µM | > 48.6 µM | > 21.2 µM | > 100 µM | 3.72 µM | 8.77 µM |
| N#CC1C(=O)NC(=O)C(C#N)C1c1ccc(Cl)c(Cl)c1 (stereo not given) | – | > 100 µM | – | > 100 µM | – | 67 µM | – | 42.6 µM | – | > 100 µM | – | 50.9 µM | – | 49.2 µM | – | 51.5 µM | – | > 100 µM | – | 34.4 µM |
| CC1SC(c2cccc(Cl)c2)N(NC(=O)C(O)c2ccccc2)C1=O (stereo not given) | 75.4 µM | > 100 µM | > 100 µM | > 100 µM | > 100 µM | > 100 µM | > 100 µM | > 100 µM | > 100 µM | > 100 µM | > 100 µM | > 100 µM | > 100 µM | > 100 µM | > 100 µM | > 100 µM | > 100 µM | > 100 µM | > 100 µM | > 100 µM |
| N#CC(CC(=O)O)=C(c1ccccc1)c1ccccc1 | – | > 100 µM | – | > 100 µM | – | > 100 µM | – | > 100 µM | – | > 100 µM | – | > 100 µM | – | > 100 µM | – | > 100 µM | – | > 100 µM | – | > 100 µM |
| O=C(OCc1ccccc1)c1ccccc1-c1c2ccc(=O)cc-2oc2cc(OCc3ccccc3)ccc12 | – | > 100 µM | – | 42.8 µM | – | 59.1 µM | – | 28.9 µM | – | 35.8 µM | – | > 100 µM | – | 49.6 µM | – | 13.9 µM | – | 17.9 µM | – | 21.2 µM |
| O=C1CC2OCC=C3CN4CCC56c7ccccc7N1C5C2C3CC46 (stereo not given) (tested in a mixture with another compound) | > 50 µg/mL | > 50 µg/mL | > 50 µg/mL | > 50 µg/mL | > 50 µg/mL | > 50 µg/mL | > 50 µg/mL | > 50 µg/mL | > 50 µg/mL | > 50 µg/mL | > 50 µg/mL | > 50 µg/mL | > 50 µg/mL | > 50 µg/mL | > 50 µg/mL | > 50 µg/mL | > 50 µg/mL | > 50 µg/mL | > 50 µg/mL | > 50 µg/mL |
| CCCC(CCC)C(=O)O | > 100 µM | > 20000 µM | > 100 µM | > 100 µM and 10300 µM | > 100 µM | > 20000 µM | > 100 µM | > 20000 µM | > 100 µM | > 20000 µM | > 100 µM | > 100 µM and 17400 µM | > 20000 µM | > 20000 µM | > 100 µM | > 20000 µM | > 100 µM | > 20000 µM | > 100 µM | > 20000 µM |
| CCCCCCCCCCCCCCCC(N)c1ccccc1 (stereo not given) | 1.67 µM | 3.45 µM | 1.68 µM | 3.14 µM | 1.64 µM | 3.08 µM | 1.69 µM | 3.17 µM | 1.91 µM | 3.55 µM | 1.79 µM | 3.34 µM | 1.74 µM | 3.35 µM | 1.68 µM | 3.2 µM | 1.57 µM | 3.23 µM | 1.52 µM | 3 µM |
| NC(N)=N/N=C/c1ccc(Br)cc1 | 10.3 µM | 31.6 µM | 2.99 µM | 7.21 µM | 3.41 µM | 9.23 µM | 2.33 µM | 6.35 µM | 3.29 µM | 11.7 µM | 7.2 µM | 20.1 µM | 4.81 µM | 19.6 µM | 3.58 µM | 15.4 µM | 5.78 µM | 24 µM | 6.45 µM | 20.8 µM |
